Columns and labels:
Type in all cases: in vivo
[1] = test system: Colletotrichum lagenarium; assay: Cucumber anthracnose (COLLLA) disease control; conditions: 100 ppm, 1 Day Protectant
Experimental: All fungicides were evaluated using the aforementioned method for their activity vs. all target diseases, unless stated otherwise. Wheat leaf blotch and brown rust activity were also evaluated using track spray applications, in which case the fungicides were formulated as EC formulations, containing 0.1% Trycol 5941 in the spray solutions. Wheat plants (variety Yuma) were grown from seed in a greenhouse in 50% mineral soil/50% soil-less Metro mix until the first leaf was fully emerged, with 7-10 seedlings per pot. These plants were inoculated with an aqueous spore suspension of Zymoseptoria tritici either prior to or after fungicide treatments. After inoculation the plants were kept in 100% relative humidity (one day in a dark dew chamber followed by two to three days in a lighted dew chamber at 20° C.) to permit spores to germinate and infect the leaf. The plants were then transferred to a greenhouse set at 20° C. for disease to develop. When disease symptoms were fully expressed on the 1st leaves of untreated plants, infection levels were assessed on a scale of 0 to 100 percent disease severity. Percent disease control was calculated using the ratio of disease severity on treated plants relative to untreated plants. Example K: Evaluation of Fungicidal Activity: Cucumber Anthracnose (Colletotrichum lagenarium; Bayer Code COLLLA) Cucumber seedlings (variety Bush Pickle) were propagated in soil-less Metro mix, with each pot having one plant, and used in the test when 12 to 14 days old. Test plants were inoculated with an aqueous spore suspension of Colletotrichum lagenarium 24 hr after fungicide treatments. After inoculation the plants were kept in a dew room at 22° C. with 100% relative humidity for 48 hr to permit spores to germinate and infect the leaf. The plants were then transferred to a growth room set at 22° C. for disease to develop. Fungicide formulation, application and disease assessment on the sprayed leaves followed the procedures as described in the Example A.

[2] = test system: Pyricularia oryzae; conditions: 100 ppm; 1 Day Protectant; rice
[3] = test system: Erysiphe cichoracearum; assay: Powdery mildew of cucumber (ERYSCI) disease control; conditions: 100 ppm, 1 Day Protectant
Experimental: All fungicides were evaluated using the aforementioned method for their activity vs. all target diseases, unless stated otherwise. Wheat leaf blotch and brown rust activity were also evaluated using track spray applications, in which case the fungicides were formulated as EC formulations, containing 0.1% Trycol 5941 in the spray solutions. Wheat plants (variety Yuma) were grown from seed in a greenhouse in 50% mineral soil/50% soil-less Metro mix until the first leaf was fully emerged, with 7-10 seedlings per pot. These plants were inoculated with an aqueous spore suspension of Zymoseptoria tritici either prior to or after fungicide treatments. After inoculation the plants were kept in 100% relative humidity (one day in a dark dew chamber followed by two to three days in a lighted dew chamber at 20° C.) to permit spores to germinate and infect the leaf. The plants were then transferred to a greenhouse set at 20° C. for disease to develop. When disease symptoms were fully expressed on the 1st leaves of untreated plants, infection levels were assessed on a scale of 0 to 100 percent disease severity. Percent disease control was calculated using the ratio of disease severity on treated plants relative to untreated plants. […] Plants were inoculated with a spore suspension 24 hr following fungicide treatments. After inoculation the plants remained in the greenhouse set at 20° C. until disease was fully expressed. Fungicide formulation, application and disease assessment on the sprayed leaves followed the procedures as described in the Example A.

[4] = test system: Venturia inaequalis; assay: Apple scab (VENTIN) disease control; conditions: 100 ppm, 1 Day Protectant
Experimental: All fungicides were evaluated using the aforementioned method for their activity vs. all target diseases, unless stated otherwise. Wheat leaf blotch and brown rust activity were also evaluated using track spray applications, in which case the fungicides were formulated as EC formulations, containing 0.1% Trycol 5941 in the spray solutions. Wheat plants (variety Yuma) were grown from seed in a greenhouse in 50% mineral soil/50% soil-less Metro mix until the first leaf was fully emerged, with 7-10 seedlings per pot. These plants were inoculated with an aqueous spore suspension of Zymoseptoria tritici either prior to or after fungicide treatments. After inoculation the plants were kept in 100% relative humidity (one day in a dark dew chamber followed by two to three days in a lighted dew chamber at 20° C.) to permit spores to germinate and infect the leaf. The plants were then transferred to a greenhouse set at 20° C. for disease to develop. When disease symptoms were fully expressed on the 1st leaves of untreated plants, infection levels were assessed on a scale of 0 to 100 percent disease severity. Percent disease control was calculated using the ratio of disease severity on treated plants relative to untreated plants. […] Seedlings with two expanding young leaves at the top (older leaves at bottom of the plants were trimmed) were used in the test. Plants were inoculated with a spore suspension of Venturia inaequalis 24 hr after fungicide treatment and kept in a 22° C. dew chamber with 100% relative humidity for 48 hr, and then moved to a greenhouse set at 20° C. for disease to develop. Fungicide formulation, application and disease assessment on the sprayed leaves followed the procedures as described in the Example A.

SMILES | COLLLA disease control, 1DP [1] | PYRIOR disease control, 1DP [2] | ERYSCI disease control, 1DP [3] | VENTIN disease control, 1DP [4]
COc1ccnc(C(=O)N[C@@H](C)C(=O)O[C@@H](C)[C@H](Oc2ccccc2Cl)c2ccccc2)c1OC(C)=O [Cmpd 640] | A (> 80) | A (> 80) | – | –
CCC(CC)[C@@H](Oc1ccccc1)[C@H](C)OC(=O)[C@H](C)NC(=O)c1nccc(OC)c1OCOC(C)=O [Cmpd 477] | A (> 80) | A (> 80) | A (> 80) | B (≤ 80)
COc1ccnc(C(=O)N[C@@H](C)C(=O)O[C@@H](C)[C@H](Oc2cccc(Cl)c2)c2ccccc2)c1OCOC(C)=O [Cmpd 637] | B (≤ 80) | B (≤ 80) | – | –
COc1ccnc(C(=O)N[C@@H](C)C(=O)O[C@@H](C)[C@H](Oc2ccccc2)c2ccccc2)c1OCOC(C)=O [Cmpd 500] | A (> 80) | A (> 80) | – | B (≤ 80)
C=CC(C)C(Oc1ccccc1)C(C)OC(=O)C(C)NC(=O)c1nccc(OC)c1OCOC(C)=O (stereo not shown) [Cmpd 694] | A (> 80) | A (> 80) | – | B (≤ 80)
COc1ccnc(C(=O)N[C@@H](C)C(=O)O[C@@H](C)[C@H](Oc2cccc(F)c2)c2ccccc2)c1OCOC(C)=O [Cmpd 574] | A (> 80) | A (> 80) | – | –
COc1ccnc(C(=O)N[C@@H](C)C(=O)O[C@@H](C)[C@H](Oc2cccc(Cl)c2)C(C)C)c1OC(C)=O [Cmpd 566] | A (> 80) | – | – | –
CCC[C@@H](Oc1ccccc1)[C@H](C)OC(=O)[C@H](C)NC(=O)c1nccc(OC)c1OCOC(C)=O [Cmpd 699] | A (> 80) | A (> 80) | – | B (≤ 80)
COc1ccnc(C(=O)N[C@H](C)C(=O)O[C@H](C)[C@@H](Oc2ccccc2)C(C)C)c1OCOC(C)=O [Cmpd 548] | – | – | – | B (≤ 80)
CCCOC(CC)C(Oc1ccccc1)C(C)OC(=O)C(C)NC(=O)c1nccc(OC)c1OCOC(C)=O (stereo not shown) [Cmpd 446] | B (≤ 80) | – | – | –
COc1ccnc(C(=O)N[C@H](C)C(=O)O[C@H](C)[C@@H](Oc2ccccc2)c2ccccc2)c1OCOC(C)=O [Cmpd 549] | – | – | – | B (≤ 80)
COc1ccnc(C(=O)N[C@@H](C)C(=O)O[C@@H](C)[C@H](Oc2ccccc2)C2CCCC2)c1OCOC(C)=O [Cmpd 556] | A (> 80) | A (> 80) | – | A (> 80)
CC[C@@H](CCOC)[C@@H](Oc1ccccc1)[C@H](C)OC(=O)[C@H](C)NC(=O)c1nccc(OC)c1OC(C)=O [Cmpd 482] | A (> 80) | A (> 80) | B (≤ 80) | –
CCC(C)C(Oc1ccccc1)C(C)OC(=O)C(C)NC(=O)c1nccc(OC)c1OC(C)=O (stereo not shown) [Cmpd 691] | A (> 80) | – | – | –
COc1ccnc(C(=O)N[C@H](C)C(=O)O[C@H](C)[C@H](Oc2ccccc2)C(C)C)c1OCOC(C)=O [Cmpd 560] | – | – | – | B (≤ 80)
CC[C@@H](CCOC)[C@@H](Oc1ccccc1)[C@H](C)OC(=O)[C@H](C)NC(=O)c1nccc(OC)c1OCOC(C)=O [Cmpd 476] | B (≤ 80) | A (> 80) | B (≤ 80) | –
CCC(C)C(Oc1ccccc1)C(C)OC(=O)C(C)NC(=O)c1nccc(OC)c1OCOC(C)=O (stereo not shown) [Cmpd 692] | A (> 80) | A (> 80) | – | B (≤ 80)
COc1ccnc(C(=O)N[C@@H](C)C(=O)O[C@@H](C)[C@H](Oc2ccccc2)C(C)C)c1OCOC(C)=O [Cmpd 475] | A (> 80) | A (> 80) | B (≤ 80) | A (> 80)
COc1ccnc(C(=O)N[C@H](C)C(=O)O[C@@H](C)[C@H](Oc2ccccc2)C(C)C)c1OCOC(C)=O [Cmpd 558] | – | – | – | B (≤ 80)
COc1ccnc(C(=O)N[C@@H](C)C(=O)O[C@@H](C)[C@@H](CC(C)C)Oc2ccccc2)c1OCOC(=O)C(C)C [Cmpd 1101] | A (> 80) | B (≤ 80) | – | –
COc1ccnc(C(=O)N[C@@H](C)C(=O)O[C@H](C)[C@@H](Oc2ccccc2)c2ccccc2)c1OCOC(C)=O [Cmpd 547] | – | – | – | B (≤ 80)
COc1ccnc(C(=O)N[C@@H](C)C(=O)O[C@@H](C)[C@H](Oc2ccccc2)C(C)C)c1OC(C)=O [Cmpd 478] | B (≤ 80) | A (> 80) | B (≤ 80) | –
COc1ccnc(C(=O)N[C@H](C)C(=O)O[C@@H](C)[C@@H](Oc2ccccc2)C(C)C)c1OCOC(C)=O [Cmpd 559] | – | – | – | B (≤ 80)
CCC(CC)[C@@H](Oc1ccc(F)cc1)[C@H](C)OC(=O)[C@H](C)NC(=O)c1nccc(OC)c1OCOC(C)=O [Cmpd 587] | A (> 80) | A (> 80) | – | –
COc1ccnc(C(=O)N[C@@H](C)C(=O)O[C@@H](C)[C@H](Oc2cc(F)cc(Cl)c2)C(C)C)c1OCOC(C)=O [Cmpd 617] | A (> 80) | – | – | –
COc1ccnc(C(=O)N[C@@H](C)C(=O)O[C@@H](C)[C@H](Oc2cc(F)cc(Cl)c2)c2ccccc2)c1OC(C)=O [Cmpd 642] | A (> 80) | A (> 80) | – | A (> 80)
COc1ccnc(C(=O)N[C@@H](C)C(=O)O[C@@H](C)[C@@H](Oc2ccccc2)C(C)C)c1OCOC(C)=O [Cmpd 552] | – | – | – | B (≤ 80)
COc1ccnc(C(=O)N[C@@H](C)C(=O)O[C@@H](C)[C@@H](CC(C)C)Oc2ccccc2)c1OCOC(C)=O [Cmpd 557] | – | – | – | B (≤ 80)
CCC(CC)[C@@H](Oc1ccccc1)[C@H](C)OC(=O)[C@H](C)NC(=O)c1nccc(OC)c1OC(C)=O [Cmpd 479] | A (> 80) | A (> 80) | A (> 80) | A (> 80)

Source: US20180000085A1, “USE OF PICOLINAMIDE COMPOUNDS WITH FUNGICIDAL ACTIVITY” (DOW AGROSCIENCES LLC, priority 2014, published 2018)
